From US8759363B2, “Quinazoline-based T cell proliferation inhibitors” (Yissum Research Development Company of the Hebrew …, priority 2010, dated 2014)
Like-named read-outs stand apart in the source and are kept apart here.

Legend:
A375 = A375 proliferation, BrdU uptake; format: cell-based; conditions: Homo sapiens, A-375
Procedure: (§1) Cells were depleted of fetal calf serum (FCS) for 12 hours. They were then stimulated to proliferate by addition of ConA (10 μg/ml) for PBMC from healthy individuals and for Jurkat cells, FCS (10%) for HEK293 and A375 cells, PDGF (30 ng/ml) for NIH 3T3 cells, and EGF (30 ng/ml) for MDA-MB-231, Cells (1×10^5) were cultured in 96-well plates for 3 days in the presence or absence of inhibitors at the concentrations specified in the text. Each condition was tested in duplicate wells.
(§2) Proliferation was assessed by BrdU incorporation using a colorimetric ELISA kit (Roche, Germany). Subsequent to labeling with 10 μM BrdU, DNA was denatured and the cells were incubated with anti-BrdU-POD, prior to the addition of colorimetric substrate (TMB). The reaction product was quantified by measuring absorbance at 450 nm in an ELISA plate reader (ELx800 BIO-TEK Instruments Inc.).
(§3) To characterize the mode of action of 2 (S101) in more detail, we first examined whether 2 inhibits non-hematopoietic cell lines. We studied the effect of 2 on the growth of four cell lines: NIH 3T3 (mouse embryonic fibroblasts), A-431 (human vulval carcinoma cells), MDA-MB-468 (human breast carcinoma cells), and PANC-1 (human pancreatic carcinoma cells) (FIGS. 1A-B). We also tested the inhibitors on human keratinocytes. […]

OT1 (resting) cells = assay: MLR with resting control cells, resting OT1 cells; format: cell-based, mouse; conditions: 0.5 μM, 72 h MLR with IL-7; no inhibitor 2459
Description: The aim of this test was to determine whether 2 affects only the proliferating cells or there is a general mechanism affecting all cell numbers. For this purpose we mixed 3 cell types: […]: BALB/c, 2C and OT1; […]: CB6F1, TEA and OT2. The OT1 and OT2 are splenocytes that were isolated from OT1 and OT2 mice (Jackson Laboratories, Bar Harbor, Me.),
Thus, the ability to monitor the fate of proliferation and resting cells by FACS was enabled due to the use of the MLR described above for CD4+ and CD8+ and the addition of OT2 and OT1 splenocytes, respectively.
Proliferating cells often secrete cytokines that induce survival of neighbouring cells; since the proliferation was expected to be inhibited we added 50 ng/ml of IL-7. This concentration is sufficient to keep the cells alive, but not to induce proliferation.
Irradiated Balb splenocytes were incubated for 72 h with 2C, and OT1 splenocytes in the presence of IL-7 W/O inhibitor.
The CD4+ and CD8+ were stimulated to proliferate, whereas in the absence of specific stimuli the OT1 and OT2 cell populations were resting, and theses cells were kept alive by the administration of IL-7. […] The number of 2C and OT1 cells that were treated with 0.5 μM 2 was 286 and 1148, respectively, while the number of 2C and OT1 cells that were treated with 0.5 μM 21 (control) was 4767 and 2468, respectively. This is depicted as a bar-graph in FIG. 8C.

Jurkat cells = assay: Jurkat cell proliferation, BrdU incorporation; format: cell-based, human; conditions: BrdU uptake
Procedure: as §1, §2
(§4) Since we were not prejudiced towards any specific protein kinase, we used a biological assay for T cell proliferation. We tested our libraries for inhibition of proliferation of PBMC and Jurkat cells (Table 3). Cell proliferation was measured by BrdU uptake. […] PBMC cells were stimulated by a non-specific T cell mitogen, Concanavalin A (ConA). All of the compounds that were tested inhibited proliferation at micromolar or sub-micromolar concentrations.

Keratinocytes = assay: Keratinocyte proliferation, BrdU uptake; format: cell-based; conditions: Homo sapiens, serum activated, read-out: IC50 of stimulated cells
Procedure: Primary human keratinocytes were maintained in keratinocyte growth medium (KGM): DMEM, 25% Nutrient mixture F-12 (HAM), 10% fetal bovine serum, 5 μg/ml insulin, 0.4 μg/ml hydrocortisone, 0.1 nM cholera toxin, 10 ng/ml epidermal growth factor, 1.8×10^−4 M adenine, 5 μg/ml transferrin, 2 nM T3, 100,000 U/l penicillin, […] streptomycin, 0.1 mg/ml amphotericin. The primary keratinocytes were cultured from small biopsy specimens.
as §1
as §2, with “Inc.). […]” for “Inc.).”

PBMC = PBMC proliferation, BrdU incorporation; format: cell-based, human; conditions: Homo sapiens
Procedure: Blood samples were taken from healthy donors and loaded on a Ficoll density gradient to purify the PBMC population. T cells were purified by human anti-CD3 using an autoMACS instrument (Miltenyi Biotec, Bergisch-Gladbach, Germany), according to the manufacturer's instructions. The identity of T cells was confirmed by flow cytometry, as they stained positive for CD3. Cells were stimulated with ConA (10 μg/ml), ODN2006 (0.5 μg/ml; Enzo Life Sciences), or LPS (50 μg/ml; Sigma-Aldrich, Steinheim, Germany), for 72 h in the presence of the inhibitor, and their proliferation was measured in the BrdU incorporation assay as will be later described.
as §1, §2, §4

[1] = system: NIH 3T3, A-431, MDA-MB-468, PANC-1, human keratinocytes; assay: Growth of non-hematopoietic cell lines; format: cell-based; conditions: at high concentrations at which Jurkat and PBMC growth was strongly inhibited
Procedure: The inhibitor-treated cultures and controls were fixed in glutaraldehyde, 0.05% final concentration, for 10 min at room temperature. After washing, the plates were stained with 0.1% methylene blue in 0.1 M borate buffer, for 60 min at room temperature. The plates were rigorously washed to remove excess dye and dried. The dye taken up by cells was eluted in 0.1N HCl for 60 min at 37° C., and the OD of the solution was read at 620 nm. In preliminary titration experiments, linear readings were obtained for 1×10^3 to 4×10^4 cells/well.
To characterize the mode of action of 2 (S101) in more detail, we first examined whether 2 inhibits non-hematopoietic cell lines. We studied the effect of 2 on the growth of four cell lines: NIH 3T3 (mouse embryonic fibroblasts), A-431 (human vulval carcinoma cells), MDA-MB-468 (human breast carcinoma cells), and PANC-1 (human pancreatic carcinoma cells) (FIGS. 1A-B). We also tested the inhibitors on human keratinocytes. […] We also examined the effect of 2 on BrdU uptake by stimulated and non-stimulated PC-3 (human prostate cancer), HEK293 (human embryonic kidney), NIH-3T3, A375 (human malignant melanoma), and MDA-MB-231 (human breast adenocarcinoma).

MDA-MB-231 = MDA-MB-231 proliferation, BrdU uptake; format: cell-based; conditions: Homo sapiens
Procedure: as §1, §2, §3

COc1cc(-c2nc(Nc3ccc(C)cc3)c3ccccc3n2)cc(OC)c1OC [Compound 2, N-p-tolyl-2-(3,4,5-trimethoxyphenyl)quinazolin-4-amine]
IC50 (A375; A375, non-stimulated, read-out: IC50 of non-stimulated cells): ~0.8 µM | IC50 (A375; A375, serum (FCS 10%) activated, read-out: IC50 of stimulated cells): > 10 µM | number of OT1 (resting) cells (OT1 (resting) cells): 1148 | IC50 (Jurkat cells; nM ± SD, read-out: IC50 Jurkat cells proliferation inhibition): 29 ± 0.23 nM | IC50 (Jurkat cells; Homo sapiens, Jurkat, nM ± SD, read-out: IC50 Jurkat cells proliferation inhibition): 30 nM | IC50 (Jurkat cells; Homo sapiens, Jurkat, non-stimulated, read-out: IC50 of non-stimulated cells): 50 nM | IC50 (Jurkat cells; Homo sapiens, Jurkat, stimulated, read-out: IC50 of stimulated cells): 100 nM | IC50 (Keratinocytes): > 10 µM | IC50 (PBMC; PBMC, ConA 10 μg/ml, 72 h, read-out: IC50 ConA-stimulated proliferation of PBMC): ~100 nM | IC50 (PBMC; PBMC, ODN2006 0.5 μg/ml or LPS 50 μg/ml, 72 h, read-out: IC50 ODN2006 and LPS-stimulated proliferation of PBMCs): ~500 nM | IC50 (PBMC; ConA-stimulated PBMC, BrdU uptake, nM ± SD, read-out: IC50 PBMC proliferation inhibition): 70 nM | IC50 (PBMC; PBMC, non-stimulated, BrdU uptake, read-out: IC50 of non-stimulated cells): 50 nM | effect on growth of non-hematopoietic cell types [1]: slightly affected | IC50 (MDA-MB-231; MDA-MB-231, EGF (30 ng/ml) activated, read-out: IC50 of stimulated cells): > 10 µM | IC50 (MDA-MB-231; MDA-MB-231, non-stimulated, read-out: IC50 of non-stimulated cells): > 10 µM
